Source: paper PMC5218480 (PLoS ONE, 2017)

Test system: MV-4-11 cells
Assay: Gene expression microarray analysis (Affymetrix PrimeView) and GSEA
Format: cell-based, human
Design: RFU PODN (11730768_x_at) / Fold change /veh PODN (11730768_x_at) / RFU LINC00158 (11744669_a_at) / Fold change /veh LINC00158 (11744669_a_at) / RFU DUSP10 (11751237_a_at) / Fold change /veh DUSP10 (11751237_a_at) / RFU ID3 (11757404_x_at) / Fold change /veh ID3 (11757404_x_at) / RFU PLEKHG5 (11737974_s_at) / Fold change /veh PLEKHG5 (11737974_s_at) / RFU LRRC4B (11730491_at) / Fold change /veh LRRC4B (11730491_at) / RFU GIMAP4 (11747438_a_at) / Fold change /veh GIMAP4 (11747438_a_at) / RFU KRT8 (11758183_x_at) / Fold change /veh KRT8 (11758183_x_at) / RFU CNN1 (11734310_a_at) / Fold change /veh CNN1 (11734310_a_at) / RFU VPS37D (11726825_at) / Fold change /veh VPS37D (11726825_at) / RFU C10orf10 (11716522_x_at) / Fold change /veh C10orf10 (11716522_x_at) / RFU KIR2DL2 /// KIR2DL4 /// KIR2DL5A /// KIR2DL5B /// KIR2DS1 /// KIR2DS2 /// KIR2DS3 /// KIR2DS4 /// KIR3DL3 /// KIR3DL3 /// KIR3DS1 (11738374_at) / Fold change /veh KIR2DL2 /// KIR2DL4 /// KIR2DL5A /// KIR2DL5B /// KIR2DS1 /// KIR2DS2 /// KIR2DS3 /// KIR2DS4 /// KIR3DL3 /// KIR3DL3 /// KIR3DS1 (11738374_at) / RFU C1QL1 (11718748_at) / Fold change /veh C1QL1 (11718748_at) / RFU TMPRSS4 (11747572_a_at) / Fold change /veh TMPRSS4 (11747572_a_at) / RFU HAMP (11756126_x_at) / Fold change /veh HAMP (11756126_x_at) / RFU RNFT2 (11725882_a_at) / Fold change /veh RNFT2 (11725882_a_at) / RFU NR4A2 (11747474_a_at) / Fold change /veh NR4A2 (11747474_a_at) / RFU ABCC12 (11746883_a_at) / Fold change /veh ABCC12 (11746883_a_at) / RFU TMEM136 (11760407_x_at) / Fold change /veh TMEM136 (11760407_x_at) / RFU CLDN22 /// WWC2 (11732394_at) / Fold change /veh CLDN22 /// WWC2 (11732394_at) / RFU HLA-DPB1 (11760878_x_at) / Fold change /veh HLA-DPB1 (11760878_x_at) / RFU SPINT1 (11716480_a_at) / Fold change /veh SPINT1 (11716480_a_at) / RFU GAP43 (11754022_s_at) / Fold change /veh GAP43 (11754022_s_at) / RFU A4GNT (11735810_at) / Fold change /veh A4GNT (11735810_at) / RFU PRB3 (11715151_x_at) / Fold change /veh PRB3 (11715151_x_at) / RFU TUBB4B (11761932_at) / Fold change /veh TUBB4B (11761932_at) / RFU CAPN14 (11732068_a_at) / Fold change /veh CAPN14 (11732068_a_at) / RFU TMCC2 (11721928_a_at) / Fold change /veh TMCC2 (11721928_a_at) / RFU IRGQ (11745062_a_at) / Fold change /veh IRGQ (11745062_a_at) / RFU FAM174B (11720279_a_at) / Fold change /veh FAM174B (11720279_a_at) / RFU TMPRSS4 (11748680_a_at) / Fold change /veh TMPRSS4 (11748680_a_at) / RFU FAM212B (11763350_a_at) / Fold change /veh FAM212B (11763350_a_at) / RFU PLEKHG5 (11743358_a_at) / Fold change /veh PLEKHG5 (11743358_a_at) / RFU ZSCAN30 (11745921_a_at) / Fold change /veh ZSCAN30 (11745921_a_at) / RFU CMKLR1 (11741424_a_at) / Fold change /veh CMKLR1 (11741424_a_at) / RFU LOC101060620 /// MAPK8IP1 (11723275_at) / Fold change /veh LOC101060620 /// MAPK8IP1 (11723275_at) / RFU SPTSSB (11747773_x_at) / Fold change /veh SPTSSB (11747773_x_at) / RFU PRSS12 (11739890_at) / Fold change /veh PRSS12 (11739890_at) / RFU BIN1 (11741810_x_at) / Fold change /veh BIN1 (11741810_x_at) / RFU WNT11 (11732464_a_at) / Fold change /veh WNT11 (11732464_a_at) / RFU C10orf10 (11716521_a_at) / Fold change /veh C10orf10 (11716521_a_at) / RFU C5orf56 (11738089_at) / Fold change /veh C5orf56 (11738089_at) / RFU CYB561 (11721691_x_at) / Fold change /veh CYB561 (11721691_x_at) / RFU ANKRD19P (11752326_a_at) / Fold change /veh ANKRD19P (11752326_a_at) / RFU OR2T12 /// OR2T33 /// OR2T8 (11738714_s_at) / Fold change /veh OR2T12 /// OR2T33 /// OR2T8 (11738714_s_at) / RFU VCAN (11748164_a_at) / Fold change /veh VCAN (11748164_a_at) / RFU JSRP1 (11732532_at) / Fold change /veh JSRP1 (11732532_at) / RFU KRTAP10-11 (11738290_x_at) / Fold change /veh KRTAP10-11 (11738290_x_at) / RFU MYO3A (11730013_a_at) / Fold change /veh MYO3A (11730013_a_at) / RFU EBF3 (11725865_a_at) / Fold change /veh EBF3 (11725865_a_at) / RFU CAMK2N1 (11719241_x_at) / Fold change /veh CAMK2N1 (11719241_x_at) / RFU C5orf56 (11738088_a_at) / Fold change /veh C5orf56 (11738088_a_at) / RFU OLFML3 (11715873_a_at) / Fold change /veh OLFML3 (11715873_a_at) / RFU LOC100653217 /// NTM (11731650_a_at) / Fold change /veh LOC100653217 /// NTM (11731650_a_at) / RFU MAPK11 (11762145_a_at) / Fold change /veh MAPK11 (11762145_a_at) / RFU FIZ1 (11724087_x_at) / Fold change /veh FIZ1 (11724087_x_at) / RFU OASL (11726364_x_at) / Fold change /veh OASL (11726364_x_at) / RFU SOX15 (11748057_x_at) / Fold change /veh SOX15 (11748057_x_at) / RFU CD79A (11719716_a_at) / Fold change /veh CD79A (11719716_a_at) / RFU HIST1H1D (11736915_at) / Fold change /veh HIST1H1D (11736915_at) / RFU CASKIN2 (11723855_a_at) / Fold change /veh CASKIN2 (11723855_a_at) / RFU LOC730098 (11760151_x_at) / Fold change /veh LOC730098 (11760151_x_at) / RFU OR4N2 (11742367_at) / Fold change /veh OR4N2 (11742367_at) / RFU PRRT2 (11749266_a_at) / Fold change /veh PRRT2 (11749266_a_at) / RFU SNX32 (11753110_a_at) / Fold change /veh SNX32 (11753110_a_at) / RFU CDHR5 (11726645_a_at) / Fold change /veh CDHR5 (11726645_a_at) / RFU RCAN1 (11760418_a_at) / Fold change /veh RCAN1 (11760418_a_at) / RFU FAM167A (11723789_a_at) / Fold change /veh FAM167A (11723789_a_at) / RFU FAM26E (11764081_at) / Fold change /veh FAM26E (11764081_at) / RFU ISYNA1 (11749810_s_at) / Fold change /veh ISYNA1 (11749810_s_at) / RFU ACY1 (11761880_at) / Fold change /veh ACY1 (11761880_at) / RFU 11764098_at / Fold change /veh 11764098_at / RFU SAMD14 (11745864_x_at) / Fold change /veh SAMD14 (11745864_x_at) / RFU NPB (11741838_a_at) / Fold change /veh NPB (11741838_a_at) / RFU TMPRSS6 (11731388_a_at) / Fold change /veh TMPRSS6 (11731388_a_at) / RFU KRTAP10-2 (11738614_at) / Fold change /veh KRTAP10-2 (11738614_at) / RFU ARHGAP8 /// PRR5-ARHGAP8 (11727945_x_at) / Fold change /veh ARHGAP8 /// PRR5-ARHGAP8 (11727945_x_at) / RFU KRTAP5-7 /// NADSYN1 (11734609_at) / Fold change /veh KRTAP5-7 /// NADSYN1 (11734609_at) / RFU RASL12 (11751679_a_at) / Fold change /veh RASL12 (11751679_a_at) / RFU CDKN2B (11736163_a_at) / Fold change /veh CDKN2B (11736163_a_at) / RFU PRF1 (11729649_at) / Fold change /veh PRF1 (11729649_at) / RFU, ZNF638 /// ZNF638-IT1 / Fold change vs veh, ZNF638 /// ZNF638-IT1 / RFU, PANK3 / Fold change vs veh, PANK3 / RFU, SH3YL1 / Fold change vs veh, SH3YL1 / RFU, ZEB2 / Fold change vs veh, ZEB2 / RFU, NRIP1 / Fold change vs veh, NRIP1 / RFU, PTTG1IP / Fold change vs veh, PTTG1IP / RFU, CAPN2 / Fold change vs veh, CAPN2 / RFU, MED14 / Fold change vs veh, MED14 / RFU, SNORA58 / Fold change vs veh, SNORA58 / RFU, C1orf63 / Fold change vs veh, C1orf63 / RFU, LRRFIP1 / Fold change vs veh, LRRFIP1 / RFU, NDUFAF7 / Fold change vs veh, NDUFAF7 / RFU, SLC12A2 / Fold change vs veh, SLC12A2 / RFU, IBTK / Fold change vs veh, IBTK / RFU, ESF1 / Fold change vs veh, ESF1 / Fold change vs veh, TMEM50B / RFU, TAOK1 / Fold change vs veh, TAOK1 / RFU, ACBD3 / Fold change vs veh, ACBD3 / RFU, TMA16 / Fold change vs veh, TMA16 / RFU, RWDD3 / Fold change vs veh, RWDD3 / RFU, BCAT1 / Fold change vs veh, BCAT1 / RFU, EDEM3 / Fold change vs veh, EDEM3 / RFU, TMEM33 / Fold change vs veh, TMEM33 / RFU, WDR75 / Fold change vs veh, WDR75 / RFU, AHCTF1 / Fold change vs veh, AHCTF1 / RFU, TFRC / Fold change vs veh, TFRC / RFU, ZDHHC17 / Fold change vs veh, ZDHHC17 / RFU, NOM1 / Fold change vs veh, NOM1 / RFU, ARL8B / Fold change vs veh, ARL8B / RFU, ZBTB11 / Fold change vs veh, ZBTB11 / RFU, TAMM41 / Fold change vs veh, TAMM41 / RFU, KIAA1704 /// LOC100996395 / Fold change vs veh, KIAA1704 /// LOC100996395 / RFU, ING1 / Fold change vs veh, ING1 / RFU, TRMT61B / Fold change vs veh, TRMT61B / RFU, FUBP3 / Fold change vs veh, FUBP3 / RFU, TP53 / Fold change vs veh, TP53 / RFU, TNKS2 / Fold change vs veh, TNKS2 / RFU, ZFP14 / Fold change vs veh, ZFP14 / RFU, ACTR2 / Fold change vs veh, ACTR2 / RFU, PPP3R1 / Fold change vs veh, PPP3R1 / RFU, PIK3R1 / Fold change vs veh, PIK3R1 / RFU, HNRNPA1 / Fold change vs veh, HNRNPA1 / RFU, RNF170 / Fold change vs veh, RNF170 / RFU, ZNF28 / Fold change vs veh, ZNF28 / RFU, RNGTT / Fold change vs veh, RNGTT / RFU, OGT / Fold change vs veh, OGT / RFU, BRD1 / Fold change vs veh, BRD1 / RFU, MARS / Fold change vs veh, MARS / RFU, ZNF655 / Fold change vs veh, ZNF655 / RFU, FAHD1 / Fold change vs veh, FAHD1 / RFU, BDP1 / Fold change vs veh, BDP1 / RFU, LRRCC1 / Fold change vs veh, LRRCC1 / RFU, ARID1A / Fold change vs veh, ARID1A / RFU, ZNF146 / Fold change vs veh, ZNF146 / RFU, ZNF330 / Fold change vs veh, ZNF330 / RFU, GPN3 / Fold change vs veh, GPN3 / RFU, C9orf123 / Fold change vs veh, C9orf123 / RFU, N4BP2L2 / Fold change vs veh, N4BP2L2 / RFU, ARFIP1 / Fold change vs veh, ARFIP1 / RFU, FAM179B / Fold change vs veh, FAM179B / RFU, BCL10 / Fold change vs veh, BCL10 / RFU, UHRF1BP1L / Fold change vs veh, UHRF1BP1L / RFU, BET1 / Fold change vs veh, BET1 / RFU, CNOT2 / Fold change vs veh, CNOT2 / RFU, ZNF268 / Fold change vs veh, ZNF268 / Fold change vs veh, ZNF507 / RFU, DGCR2 / Fold change vs veh, DGCR2 / RFU, WDSUB1 / Fold change vs veh, WDSUB1 / Fold change vs veh, HSP90B1 /// MIR3652 / RFU, ADSS / Fold change vs veh, ADSS / RFU, GK / Fold change vs veh, GK / RFU, ZNF148 / Fold change vs veh, ZNF148 / RFU, TAF9 / Fold change vs veh, TAF9 / RFU, SLC1A5 / Fold change vs veh, SLC1A5 / RFU, SLMO2 / Fold change vs veh, SLMO2 / RFU, ABCC4 / Fold change vs veh, ABCC4 / RFU, LOC101060439 /// RAP1B / Fold change vs veh, LOC101060439 /// RAP1B / RFU, RFX7 / Fold change vs veh, RFX7 / RFU, GTPBP10 / Fold change vs veh, GTPBP10 / RFU, CNEP1R1 / Fold change vs veh, CNEP1R1 / RFU, BIVM-ERCC5 /// ERCC5 / Fold change vs veh, BIVM-ERCC5 /// ERCC5 / RFU, ILF3 / Fold change vs veh, ILF3 / RFU 11762660_at / Fold change /veh 11762660_at / RFU VCAN (11757783_s_at) / Fold change /veh VCAN (11757783_s_at) / RFU DDX43 (11728927_at) / Fold change /veh DDX43 (11728927_at) / RFU KRT8 (11758188_x_at) / Fold change /veh KRT8 (11758188_x_at) / RFU NKD1 (11759106_at) / Fold change /veh NKD1 (11759106_at) / RFU SRD5A1 (11742802_a_at) / Fold change /veh SRD5A1 (11742802_a_at) / RFU TPSAB1 /// TPSB2 (11721975_s_at) / Fold change /veh TPSAB1 /// TPSB2 (11721975_s_at) / RFU GSTM3 (11746129_a_at) / Fold change /veh GSTM3 (11746129_a_at) / RFU IL23R (11737362_x_at) / Fold change /veh IL23R (11737362_x_at) / RFU TMEM51 (11727254_a_at) / Fold change /veh TMEM51 (11727254_a_at) / RFU PIWIL2 (11732686_x_at) / Fold change /veh PIWIL2 (11732686_x_at) / RFU ORM1 (11744905_x_at) / Fold change /veh ORM1 (11744905_x_at) / RFU CCDC152 (11743942_at) / Fold change /veh CCDC152 (11743942_at) / RFU ECM1 (11717891_a_at) / Fold change /veh ECM1 (11717891_a_at) / RFU IL23R (11748794_a_at) / Fold change /veh IL23R (11748794_a_at) / RFU TNFAIP8L3 (11732012_x_at) / Fold change /veh TNFAIP8L3 (11732012_x_at) / RFU MBOAT4 (11741988_at) / Fold change /veh MBOAT4 (11741988_at) / RFU 11764193_at / Fold change /veh 11764193_at / RFU TMEM53 (11763286_at) / Fold change /veh TMEM53 (11763286_at) / RFU MAGEB2 (11727129_at) / Fold change /veh MAGEB2 (11727129_at) / RFU TMEM200A (11744735_a_at) / Fold change /veh TMEM200A (11744735_a_at) / RFU CCDC152 (11751479_a_at) / Fold change /veh CCDC152 (11751479_a_at) / RFU FAM211A (11726209_a_at) / Fold change /veh FAM211A (11726209_a_at) / RFU RGS16 (11746705_a_at) / Fold change /veh RGS16 (11746705_a_at) / RFU VCAN (11755009_s_at) / Fold change /veh VCAN (11755009_s_at) / RFU RHOB (11743442_s_at) / Fold change /veh RHOB (11743442_s_at) / RFU RGS16 (11720943_a_at) / Fold change /veh RGS16 (11720943_a_at) / RFU RGS16 (11720944_at) / Fold change /veh RGS16 (11720944_at) / RFU, VPS4B / Fold change vs veh, VPS4B / RFU, CREB1 / Fold change vs veh, CREB1 / RFU, DNAJC13 / Fold change vs veh, DNAJC13 / RFU, GNAQ / Fold change vs veh, GNAQ / RFU, CDK5R1 / Fold change vs veh, CDK5R1 / RFU, ZRANB3 / Fold change vs veh, ZRANB3 / RFU, CUL4A / Fold change vs veh, CUL4A / RFU, CCNY / Fold change vs veh, CCNY / RFU, UFL1 / Fold change vs veh, UFL1 / RFU, COG3 / Fold change vs veh, COG3 / RFU, DIAPH2 / Fold change vs veh, DIAPH2 / RFU, SKA2 / Fold change vs veh, SKA2 / RFU, AFF3 / Fold change vs veh, AFF3 / RFU, LMF1 / Fold change vs veh, LMF1 / RFU, IPO11 / Fold change vs veh, IPO11 / RFU, DFFB / Fold change vs veh, DFFB / RFU, FOXP1 / Fold change vs veh, FOXP1 / RFU, CARD8 / Fold change vs veh, CARD8 / RFU, STRN3 / Fold change vs veh, STRN3 / RFU, ADK / Fold change vs veh, ADK / RFU, RASSF2 / Fold change vs veh, RASSF2 / RFU, WIPF1 / Fold change vs veh, WIPF1 / RFU, LARP1B / Fold change vs veh, LARP1B / RFU, RASA1 / Fold change vs veh, RASA1 / RFU, RB1 / Fold change vs veh, RB1 / RFU, PPFIA1 / Fold change vs veh, PPFIA1 / RFU, MAT2A / Fold change vs veh, MAT2A / RFU, CCT5 / Fold change vs veh, CCT5 / RFU, WDR92 / Fold change vs veh, WDR92 / RFU, CUX1 / Fold change vs veh, CUX1 / RFU, TTC7A / Fold change vs veh, TTC7A / RFU, TMEM135 / Fold change vs veh, TMEM135 / RFU, DEPTOR / Fold change vs veh, DEPTOR / RFU, CPM / Fold change vs veh, CPM / RFU, DNAJB6 / Fold change vs veh, DNAJB6 / RFU, CACNA2D3 / Fold change vs veh, CACNA2D3 / RFU, DTX4 / Fold change vs veh, DTX4 / RFU, TFCP2 / Fold change vs veh, TFCP2 / RFU, GMCL1 /// GMCL1P1 / Fold change vs veh, GMCL1 /// GMCL1P1 / RFU, AEBP2 / Fold change vs veh, AEBP2 / RFU, SNHG1 /// SNORD22 /// SNORD25 /// SNORD26 /// SNORD27 /// SNORD28 /// SNORD29 /// SNORD31 / Fold change vs veh, SNHG1 /// SNORD22 /// SNORD25 /// SNORD26 /// SNORD27 /// SNORD28 /// SNORD29 /// SNORD31 / Fold change (Aza/veh), C12orf56 (ProbeSet 11735607_a_at) / Fold change (ACY-1035/veh), C12orf56 (ProbeSet 11735607_a_at) / Fold change (Aza/veh), FGFR1OP (ProbeSet 11751329_s_at) / Fold change (ACY-1035/veh), FGFR1OP (ProbeSet 11751329_s_at) / Fold change (Aza/veh), VPS36 (ProbeSet 11739960_a_at) / Fold change (ACY-1035/veh), VPS36 (ProbeSet 11739960_a_at) / RFU SYPL1 (11715823_x_at) / Fold change /veh SYPL1 (11715823_x_at) / RFU IGFBP7 (11715501_s_at) / Fold change /veh IGFBP7 (11715501_s_at) / RFU REEP3 (11722064_at) / Fold change /veh REEP3 (11722064_at) / RFU IGLL1 (11728026_x_at) / Fold change /veh IGLL1 (11728026_x_at): dose or concentration left out as unconfirmed
Conditions: MV-4-11 cells, 48 hours

Structure (SMILES): Nc1ccc(-c2cccs2)cc1NC(=O)c1ccc2c(c1)cc(C1CC1)n2CCN1CCOCC1 [ACY-1035]
- Fold change /veh BIN1 (11741810_x_at): 1.15
